Data from US20250295659A1, “METHODS FOR TREATING TRAUMATIC BRAIN INJURY” (The Regents of the University of California, priority 2021, published 2025).
“Also recorded” adds a separate entry of the source.

Legend:
[1] = doses for FDA-approved treatments (cancer patients); cited from earlier work
[2] = tested on: TBI (moderate lateral fluid percussion) in adult male Sprague-Dawley rats; experiment: Morris Water Maze after moderate lateral fluid percussion TBI; assay type: in vivo, rat; conditions: LFP-TBI, 2 mg/kg i.p. single dose immediately after TBI, days 12 through 16 after TBI, vs TBI/vehicle, P<0.05
Protocol: Moderate Lateral fluid percussion (LFP) was used to produce TBI in adult male Sprague-Dawley rats (weighing 300-350 grams). […] All of the following data were obtained using moderate LFP in adult rats. […] Sham and vehicle control animals received 5% DMSO in 0.9% saline. Morris Water Maze (MWM). Spatial memory was assessed using the MWM on days 12 through 16 after TBI. […] In brief rats were released from one of four starting points and allowed 120 s to find the escape platform. Rats received a total of 4 trials per day, one from each starting point, over 5 consecutive days. Behavioral assessments were performed by an individual blinded to the treatment groups. Mean latency to find the platform was calculated for each day to assess learning as well as the mean swimming speed to assess motor function. Statistical differences were determined using repeated measures ANOVA followed by Dunnett's post hoc test.

CCI-TBI in rats = experiment: Elevated body swing test after CCI-TBI; assay type: in vivo, rat; conditions: 2 mg/kg i.p. single dose at 0 or 3 hrs post-TBI, 24 hrs after TBI, vs TBI/vehicle, P<0.05
[3] = tested on: CCI-TBI in rats, ipsilateral hippocampal CA2-3 neurons; experiment: NeuN-positive hippocampal CA2-3 neuron counts after CCI-TBI; assay type: in vivo, rat; conditions: 2 mg/kg single dose at 0, 3 or 6 hrs post-TBI, 24 hrs after TBI, vs TBI/vehicle, P<0.05 or P<0.01
Protocol: Brain sample preparation and immunohistochemistry. Anesthetized rats were perfused with saline followed by 4% PFA at day 1 or day 16. Brain sections (50 μm) are cut at −20° C. and incubated in 0.3% H2O2 for 10 minutes to quench endogenous peroxidase, incubated with 3% horse blocking serum for 20 minutes, and then incubated overnight in primary antibody (mouse anti-NeuN, mature neuron marker, 1:150, Millipore), then in biotinylated secondary antibody (Goat anti-mouse 1:1,000, Vector) for 0.5 h, then placed in Vectastain ABC reagent for 0.5 hr and incubated in peroxidase substrate 3, 3′-diaminobenzidine (DAB) solution for 10 min.
Stereological cell counts. The total number of NeuN-positive neurons in CA2-3 of hippocampus were quantified bilaterally using stereological methods. The NeuN-positive cell counts were performed on a microscope (Nikon E600, Nikon) using commercial software (Stereo Investigator™8.0, Microbrightfield, Inc.). Serial sections cut at 50 μm thick were collected at Bregma −2.80 mm to Bregma −4.16 mm for a total of 10 sections per brain. […] Statistical differences are determined using ANOVA followed by Dunnett's post hoc test.
Methods: One day after controlled cortical impact (CCI)-TBI, rats were anesthetized and transcardially perfused with PBS followed by 4% PFA. […] The NeuN^+ cells in ipsilateral hippocampal CA2-3 were quantified (n=4-8).

c-Kit = c-Kit (Homo sapiens, UniProt P10721); conditions: target kinase c-Kit; cell-free; read-out: IC50 (nm) in vitro; cited from earlier work
Sequence of c-Kit (P10721 26-976): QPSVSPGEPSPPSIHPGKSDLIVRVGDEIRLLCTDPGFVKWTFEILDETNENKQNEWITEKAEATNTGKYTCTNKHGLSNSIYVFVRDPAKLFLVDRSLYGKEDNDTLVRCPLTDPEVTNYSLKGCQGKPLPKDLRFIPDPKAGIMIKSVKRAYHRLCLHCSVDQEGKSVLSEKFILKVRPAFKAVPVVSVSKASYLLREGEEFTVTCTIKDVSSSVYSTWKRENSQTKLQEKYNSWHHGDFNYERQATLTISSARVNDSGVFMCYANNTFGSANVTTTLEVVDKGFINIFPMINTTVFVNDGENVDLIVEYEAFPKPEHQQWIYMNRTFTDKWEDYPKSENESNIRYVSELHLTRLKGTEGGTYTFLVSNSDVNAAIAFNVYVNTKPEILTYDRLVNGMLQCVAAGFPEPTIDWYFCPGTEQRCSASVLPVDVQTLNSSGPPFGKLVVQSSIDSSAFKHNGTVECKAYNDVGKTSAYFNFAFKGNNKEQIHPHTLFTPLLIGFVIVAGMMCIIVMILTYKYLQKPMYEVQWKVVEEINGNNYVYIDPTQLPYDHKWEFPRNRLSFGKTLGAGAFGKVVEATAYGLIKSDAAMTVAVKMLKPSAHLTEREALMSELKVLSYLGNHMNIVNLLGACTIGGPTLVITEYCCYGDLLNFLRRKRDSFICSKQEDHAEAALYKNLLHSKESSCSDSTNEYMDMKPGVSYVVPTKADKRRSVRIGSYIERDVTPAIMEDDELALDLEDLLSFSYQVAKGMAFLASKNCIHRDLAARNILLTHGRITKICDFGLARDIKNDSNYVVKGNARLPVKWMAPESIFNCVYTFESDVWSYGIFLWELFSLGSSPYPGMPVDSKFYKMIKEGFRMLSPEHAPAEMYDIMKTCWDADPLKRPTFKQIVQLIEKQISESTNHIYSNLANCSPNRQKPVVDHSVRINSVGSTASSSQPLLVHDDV

| SMILES | Common Side effects when used at the doses for FDA-approved treatments [1] | other results |
| --- | --- | --- |
| Cn1cc(-c2cc3c(N4CCN(c5ncc([C@@](C)(N)c6ccc(F)cc6)cn5)CC4)ncnn3c2)cn1 [Avapritinib] | Edema, Nausea, Fatigue, General weakness, Acute confusion, Vomiting, Anorexia,; also recorded: Diarrhea, Hair discoloration, Eye tearing, Acute abdominal pain, Constipation, Skin; also recorded: rash, Dizziness, Anemia, Leukopenia |  |
| COc1cc(Nc2c(C#N)cnc3cc(OCCCN4CCN(C)CC4)c(OC)cc23)c(Cl)cc1Cl [Bosutinib] | Diarrhea, Nausea, Thrombocytopeniasorder, Vomiting, Kidney disease with; also recorded: reduction in GFR, Skin rash, Anemia, Fever, Fatigue, Neutropenic disorder,; also recorded: Abnormal hepatic function tests, Upper respiratory infection, Lower respiratory; also recorded: infection, General weakness, Anorexia, Pharyngitis, Back pain, Headache disorder,; also recorded: Dizziness, Dyspnea |  |
| Cc1nc(Nc2ncc(C(=O)Nc3c(C)cccc3Cl)s2)cc(N2CCN(CCO)CC2)n1 [Dasatinib] | Fever, Fatigue, Malaise; also recorded: Infection, Hypophosphatemia, Hypocalcemia, Body fluid retention, Anemia,; also recorded: Thrombocytopenia disorder, Neutropenic disorder, Peripheral neuropathy,; also recorded: Hemorrhage, Upper respiratory infection, Pleural effusions, Stomatitis,; also recorded: Constipation, Gastrointestinal hemorrhage, Pruritus of skin, Arthralgia, Dizziness, | latency to find the platform in the Morris Water Maze (spatial memory) [2]: significantly improved performance; also recorded: reduces spatial memory deficits; motor imbalance (biased swinging) in elevated body swing test (CCI-TBI in rats): significantly mitigated motor imbalance; also recorded: mitigates motor imbalance; survival of NeuN+ CA2-3 neurons in ipsilateral hippocampus [3]: significantly promotes survival of CA2-3 neurons; also recorded: decreases CA2-3 neuronal loss |
| COc1cc2nccc(Oc3ccc(NC(=O)NC4CC4)c(Cl)c3)c2cc1C(N)=O [Lenvatinib] |  | IC50 (c-Kit): 100 nM |
| Cc1cn(-c2cc(NC(=O)c3ccc(C)c(Nc4nccc(-c5cccnc5)n4)c3)cc(C(F)(F)F)c2)cn1 [Nilotinib] | Hypocalcemia, Hyponatremia, Back pain, Hyperkalemia, Hypokalemia,; also recorded: Pancytopenia, Anemia, Thrombocytopenia disorder, Leukopenia, Neutropenic; also recorded: disorder, Elevated serum lipase, Hypertension, Prolonged QT interval, Pharyngitis,; also recorded: Constipation, Muscle spasm, Pruritus of skin, Arthralgia, Myalgia, Vertigo |  |
| Cc1ccc(Nc2nccc(N(C)c3ccc4c(C)n(C)nc4c3)n2)cc1S(N)(=O)=O [Pazopanib] | Nausea, Vomiting, Diarrhea, Thrombocytopenia disorder, Leukopenia, Neutropenic; also recorded: disorder, Alopecia, Hypertension, Fatigue, Hemorrhage, General weakness, Skin; also recorded: rash, Proteinuria, Anorexia, Weight loss, Headache disorder, Hair bleaching, Pain,; also recorded: Myalgia, Thrombotic disorder |  |
| FC(F)(F)c1ccc(CNc2ccc(Cc3c[nH]c4ncc(Cl)cc34)cn2)cn1 [Pexidartinib] | Blurred vision, decreased appetite, dizziness, fever, headache, itching or skin rash,; also recorded: fast heartbeat, swelling of the feet or lower legs |  |
| Cc1ccc(C(=O)Nc2ccc(CN3CCN(C)CC3)c(C(F)(F)F)c2)cc1C#Cc1cnc2cccnn12 [Ponatinib] | Thromboembolic disorder, Arterial thrombosis, Hypertension, Thrombocytopenic; also recorded: disorder, Neutropenic disorder, Anemia, Skin rash, Leukopenia, Acute abdominal; also recorded: pain, Fatigue, Headache disorder, Dry skin, Constipation, Arthralgia, Nausea,; also recorded: Fever, Lymphopenia, Bone marrow depression, Diarrhea, Vomiting |  |
| CNC(=O)c1cc(Oc2ccc(NC(=O)Nc3ccc(Cl)c(C(F)(F)F)c3)c(F)c2)ccn1 [Regorafenib] | Hypertension, Impaired wound healing, General weakness, Fatigue, Anorexia,; also recorded: Palmar-plantar erythrodysesthesia, Diarrhea, Stomatitis, Weight loss, Infection,; also recorded: Voice change, Hemorrhage, Fever, Skin rash, Headache disorder,; also recorded: Hypophosphatemia, Pain, Nausea, Acute abdominal pain, Anemia |  |
| CCn1c(=O)c(-c2cc(NC(=O)Nc3ccccc3)c(F)cc2Br)cc2cnc(NC)cc21 [Ripretinib] | Alopecia, Fatigue, Nausea, Acute abdominal pain, Constipation, Myalgia, Diarrhea,; also recorded: Anorexia, Palmar-plantar erythrodysesthesia, Vomiting, Elevated serum lipase,; also recorded: Hypophosphatemia |  |
| CNC(=O)c1cc(Oc2ccc(NC(=O)Nc3ccc(Cl)c(C(F)(F)F)c3)cc2)ccn1 [Sorafenib] | Hypophosphatemia, Anemia, Thrombocytopenia disorder, Leukopenia,; also recorded: Neutropenic disorder, Lymphopenia, Depression, Peripheral neuropathy,; also recorded: Hypertension, Hemorrhage, Stomatitis, Dyspepsia, Constipation, Gastrointestinal; also recorded: hemorrhage, Erectile dysfunction, Eczema, Exfoliative dermatitis, Erythema,; also recorded: Pruritus of skin, Alopecia |  |
| CCN(CC)CCNC(=O)c1c(C)[nH]c(/C=C2\C(=O)Nc3ccc(F)cc32)c1C [Sunitinib] | Increased risk of bleeding, Pain in extremities, Peripheral edema, Back pain,; also recorded: Hypertension, Chronic heart failure; also recorded: Stomatitis, Dyspepsia, Constipation, Dry skin, Dyschromia, Arthralgia, Headache; also recorded: disorder, Dizziness, Fever, Fatigue, General weakness, Dysgeusia, Skin rash,; also recorded: Anorexia |  |
